The source of these data is US12091411B2, “IRAK degraders and uses thereof” (Kymera Therapeutics, Inc., priority 2022, dated 2024).

For the assay, the target named is T1, IRAK4 (Homo sapiens, UniProt Q9NWZ3).
T1 construct: Degradation of IRAK4 in OCI-LY10 was quantitatively measured using Meso Scale Discovery technology; endogenous in cells; host or cells: OCI-LY10
T1 sequence (Q9NWZ3 1-460): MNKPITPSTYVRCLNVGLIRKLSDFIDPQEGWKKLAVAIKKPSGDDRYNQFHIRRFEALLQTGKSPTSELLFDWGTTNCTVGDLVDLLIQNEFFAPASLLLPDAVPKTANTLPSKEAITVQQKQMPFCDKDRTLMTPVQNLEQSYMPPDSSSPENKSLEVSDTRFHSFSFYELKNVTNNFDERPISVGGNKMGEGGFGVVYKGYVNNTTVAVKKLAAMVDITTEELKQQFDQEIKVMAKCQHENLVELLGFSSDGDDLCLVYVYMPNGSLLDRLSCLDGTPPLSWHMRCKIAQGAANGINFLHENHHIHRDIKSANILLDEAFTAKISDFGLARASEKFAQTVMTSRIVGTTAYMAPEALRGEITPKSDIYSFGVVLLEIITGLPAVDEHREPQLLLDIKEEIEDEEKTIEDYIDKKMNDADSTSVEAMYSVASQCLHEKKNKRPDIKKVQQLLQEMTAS
Nature of the assay: IRAK4 MSD Degradation in OCI-LY10. In kind it is cell-based. To be noted: OCI-LY10 cells. In outline:
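DC50, from a three-parameter logistic fit and reported as letter bins A (<0.01 μM), B, C, D (>0.2 μM or not tested), reflects IRAK4 loss measured by MSD electrochemiluminescence in OCI-LY10 lysates. Treatment: 8 doses, 1:3 steps, top 1 to 10 μM, 4 to 24 h, 37 °C.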

The mark [1] stands for this setting: 4 hrs incubation, MSD, read-out: IRAK4 degradation in OCI-LY10 at 4 hrs: DC50.
[2] abbreviates: 24 hrs incubation, MSD, read-out: IRAK4 degradation in OCI-LY10 at 24 hrs: DC50.
Setting [3] is: 4 hrs incubation, read-out: IRAK4 degradation in OCI-LY10 at 4 hrs: DC50.
Setting [4] is: 24 hrs incubation, read-out: IRAK4 degradation in OCI-LY10 at 24 hrs: DC50.

Like-named read-outs stand apart in the source and are kept apart here.

Turning to `Cn1c(=O)n(C2CCC(=O)NC2=O)c2cccc(N3CCN(C(=O)C[C@]4(O)CC[C@@H](n5cc(NC(=O)c6cnn7cccnc67)c(C(F)F)n5)CC4)CC3)c21` (stereo partly drawn) [I-763], the DC50 (as a rule, the midpoint of the concentration-degradation curve) is, setting by setting: under setting [1], greater than 200 nM; under setting [2], greater than 200 nM.
Regarding `Cn1c(=O)n(C2CCC(=O)NC2=O)c2cccc(N3CCN(C(=O)C[C@]4(O)CC[C@@H](n5cc6cc(NC(=O)c7cccc(C(F)(F)F)n7)ncc6n5)CC4)CC3)c21` (stereo partly drawn) [I-764], the DC50 is greater than 200 nM under setting [1] and greater than 200 nM under setting [2].
Consider `COc1cc(NC(=O)c2cccc(C(F)(F)F)n2)cc2cn([C@H]3CC[C@H](CN4CCN(c5c(F)ccc6c5n(C)c(=O)n6C5CCC(=O)NC5=O)CC4)CC3)nc12` (stereo partly drawn) [I-765], for which the DC50 was greater than 200 nM under setting [1] and greater than 200 nM under setting [2].
With `COc1nc(NC(=O)c2cccc(C(F)(F)F)n2)cc2cn([C@H]3CC[C@H](CN4CCN(c5cccc6c5n(C)c(=O)n6C5CCC(=O)NC5=O)CC4)CC3)nc12` (stereo partly drawn) [I-766], the DC50 reads like this: under setting [1], greater than 200 nM; under setting [2], greater than 200 nM.
Turning to `Cn1c(NC(=O)c2cccc(C(F)(F)F)n2)cc2cn([C@H]3CC[C@H](CN4CCN(c5cccc6c5n(C)c(=O)n6C5CCC(=O)NC5=O)CC4)CC3)nc2c1=O` (stereo partly drawn) [I-767], the DC50 by setting is: under setting [1], greater than 200 nM; under setting [2], greater than 200 nM.
For `Cc1cccc(C(=O)Nc2cc3cn([C@H]4CC[C@H](CN5CC[C@@H](c6cccc7c6n(C)c(=O)n7C6CCC(=O)NC6=O)[C@H](F)C5)CC4)nc3c(=O)n2C)n1` (stereo partly drawn) [I-768], the DC50 reads like this: under setting [1], greater than 200 nM; under setting [2], greater than 200 nM.
Regarding `COc1nc(NC(=O)c2cccc(C(F)(F)F)n2)cc2cn([C@H]3CC[C@H](CN4CCC(c5cccc6c5n(C)c(=O)n6C5CCC(=O)NC5=O)C(F)(F)C4)CC3)nc12` (stereo partly drawn) [I-769], the DC50 is greater than 200 nM under setting [1] and greater than 200 nM under setting [2].
`COc1nc(NC(=O)c2cccc(C)n2)cc2cn([C@H]3CC[C@H](CN4CCC(c5cccc6c5n(C)c(=O)n6C5CCC(=O)NC5=O)C(F)(F)C4)CC3)nc12` (stereo partly drawn) [I-770]: the DC50 reads like this: under setting [1], greater than 200 nM; under setting [2], greater than 200 nM.
Consider `Cn1c(NC(=O)c2cccc(C(F)(F)F)n2)cc2cn([C@H]3CC[C@H](CN4CCC(c5cccc6c5n(C)c(=O)n6C5CCC(=O)NC5=O)C(F)(F)C4)CC3)nc2c1=O` (stereo partly drawn) [I-771], for which the DC50 reads like this: under setting [1], greater than 200 nM; under setting [2], greater than 200 nM.
Take `Cc1cccc(C(=O)Nc2cc3cn([C@H]4CC[C@H](CN5CCC(c6cccc7c6n(C)c(=O)n7C6CCC(=O)NC6=O)C(F)(F)C5)CC4)nc3c(=O)n2C)n1` (stereo partly drawn) [I-772]: the DC50 runs as follows: under setting [1], greater than 200 nM; under setting [2], greater than 200 nM.
In the case of `COc1nc(NC(=O)c2cccc(C(F)(F)F)n2)cc2cn([C@H]3CC[C@H](CN4CC[C@@H](c5cccc6c5n(C)c(=O)n6C5CCC(=O)NC5=O)[C@H](F)C4)CC3)nc12` (stereo partly drawn) [I-773], the 50% degradation concentration (DC50) under setting [1] was greater than 200 nM and the DC50 under setting [2] is greater than 200 nM.
Regarding `COc1nc(NC(=O)c2cccc(C(F)(F)F)n2)cc2cn([C@H]3CC[C@H](CN4CC[C@H](c5cccc6c5n(C)c(=O)n6C5CCC(=O)NC5=O)[C@@H](F)C4)CC3)nc12` (stereo partly drawn) [I-774], the DC50 runs as follows: under setting [1], greater than 200 nM; under setting [2], greater than 200 nM.
As for `COc1nc(NC(=O)c2cccc(C)n2)cc2cn([C@H]3CC[C@H](CN4CC[C@@H](c5cccc6c5n(C)c(=O)n6C5CCC(=O)NC5=O)[C@H](F)C4)CC3)nc12` (stereo partly drawn) [I-775], the DC50 by setting is: under setting [1], greater than 200 nM; under setting [2], greater than 200 nM.
Take `Cn1c(NC(=O)c2cccc(C(F)(F)F)n2)cc2cn([C@H]3CC[C@H](CN4CC[C@@H](c5cccc6c5n(C)c(=O)n6C5CCC(=O)NC5=O)[C@H](F)C4)CC3)nc2c1=O` (stereo partly drawn) [I-776]: the DC50 is, setting by setting: under setting [1], greater than 200 nM; under setting [2], greater than 200 nM.
In the case of `Cn1c(=O)n(C2CCC(=O)NC2=O)c2cccc(N3CCC(C[C@H]4CC[C@H](n5cc6cc(NC(=O)c7cccc(C(F)(F)F)n7)ncc6n5)CC4)CC3)c21` (stereo partly drawn) [I-777], the DC50 was greater than 200 nM under setting [1] and greater than 200 nM under setting [2].
As for `O=C1CCC(c2ccc(N3CC(CN4CCN(C[C@H]5CC[C@H](n6cc(NC(=O)c7cnn8ccc(N9C[C@H]%10C[C@@H]9CO%10)nc78)c(C(F)F)n6)CC5)CC4)C3)cc2Cl)C(=O)N1` (stereo partly drawn) [I-778], the DC50 is greater than 200 nM under setting [1] and greater than 200 nM under setting [2].
With `O=C1CCC(c2ccc(N3CC(N4CCN([C@H]5CC[C@H](n6cc(NC(=O)c7cnn8ccc(N9C[C@H]%10C[C@@H]9CO%10)nc78)c(C(F)F)n6)CC5)CC4)C3)cc2Cl)C(=O)N1` (stereo partly drawn) [I-779], the DC50 under setting [1] is greater than 200 nM and the DC50 under setting [2] is greater than 200 nM.
Take `O=C1CCC(c2ccc([C@H]3C[C@H](CO[C@H]4CCN(C[C@H]5CC[C@H](n6cc(NC(=O)c7cnn8ccc(N9C[C@H]%10C[C@@H]9CO%10)nc78)c(C(F)F)n6)CC5)C[C@H]4F)C3)cc2Cl)C(=O)N1` (stereo partly drawn) [I-780]: the half-maximal degradation concentration (DC50) by setting is: under setting [1], greater than 200 nM; under setting [2], greater than 200 nM.
Regarding `COc1cc2nn([C@H]3CC[C@H](CN4CC[C@@H](c5cccc6c5n(C)c(=O)n6C5CCC(=O)NC5=O)[C@H](F)C4)CC3)cc2cc1NC(=O)c1cccc(C(F)(F)F)n1` (stereo partly drawn) [I-783], the DC50 is greater than 200 nM under setting [1] and greater than 200 nM under setting [2].
With `COc1cc2nn([C@H]3CC[C@H](CN4CC[C@H](c5cccc6c5n(C)c(=O)n6C5CCC(=O)NC5=O)[C@@H](F)C4)CC3)cc2cc1NC(=O)c1cccc(C(F)(F)F)n1` (stereo partly drawn) [I-784], the DC50 is greater than 200 nM under setting [1] and greater than 200 nM under setting [2].
For `Cn1c(=O)n(C2CCC(=O)NC2=O)c2cccc(N3CC(CCC4(F)CN(C[C@H]5CC[C@H](n6cc(NC(=O)c7cnn8ccc(N9C[C@H]%10C[C@@H]9CO%10)nc78)c(C(F)F)n6)CC5)C4)C3)c21` (stereo partly drawn) [I-785], the DC50 under setting [1] was greater than 200 nM and the DC50 under setting [2] is greater than 200 nM.
In the case of `Cn1c(=O)n(C2CCC(=O)NC2=O)c2cccc(N3CCC(OC[C@H]4CC[C@H](n5cc(NC(=O)c6cnn7cccnc67)c(C(F)F)n5)CC4)CC3)c21` (stereo partly drawn) [I-786], the DC50 under setting [1] is greater than 200 nM.
Take `CN(CC1(F)CCN(c2cccc3c2n(C)c(=O)n3C2CCC(=O)NC2=O)CC1)C1CCC(n2cc3cc(NC(=O)c4cccc(C(F)(F)F)n4)ncc3n2)CC1` (stereo not drawn) [I-787]: the DC50 is greater than 200 nM under setting [1] and greater than 200 nM under setting [2].
As for `CN(CC1(F)CCN(c2cccc3c2n(C)c(=O)n3C2CCC(=O)NC2=O)CC1)C1CCC(n2cc3cc(NC(=O)c4cccc(C(F)(F)F)n4)ccc3n2)CC1` (stereo not drawn) [I-788], the DC50 is, setting by setting: under setting [1], greater than 200 nM; under setting [2], greater than 200 nM.
Take `Cn1c(=O)n(C2CCC(=O)NC2=O)c2cccc(N3CC(F)(CN(C)[C@H]4CC[C@H](n5cc6cc(NC(=O)c7cccc(C(F)(F)F)n7)ncc6n5)CC4)C3)c21` (stereo partly drawn) [I-789]: the DC50 is, setting by setting: under setting [1], greater than 200 nM; under setting [2], greater than 200 nM.
With `Cn1c(=O)n(C2CCC(=O)NC2=O)c2cccc(N3CC(F)(CN(C)[C@H]4CC[C@H](n5cc6cc(NC(=O)c7cccc(C(F)(F)F)n7)ccc6n5)CC4)C3)c21` (stereo partly drawn) [I-790], the DC50 was greater than 200 nM under setting [1] and greater than 200 nM under setting [2].
With `Cn1c(=O)n(C2CCC(=O)NC2=O)c2cccc(N3CCC(O[C@H]4CC[C@H](n5cc6cc(NC(=O)c7cccc(C(F)(F)F)n7)ncc6n5)CC4)CC3)c21` (stereo partly drawn) [I-791], the DC50 is greater than 200 nM under setting [1] and greater than 200 nM under setting [2].
Turning to `Cn1c(=O)n(C2CCC(=O)NC2=O)c2cccc(N3CCC(O[C@H]4CC[C@H](n5cc6cc(NC(=O)c7cccc(C(F)(F)F)n7)ccc6n5)CC4)CC3)c21` (stereo partly drawn) [I-792], the DC50 runs as follows: under setting [1], greater than 200 nM; under setting [2], greater than 200 nM.
As to `Cn1c(=O)n(C2CCC(=O)NC2=O)c2cccc(N3CCC(O[C@H]4CC[C@H](n5cc6cc(NC(=O)c7cccc(C(F)(F)F)n7)ncc6n5)CC4)C3)c21` (stereo partly drawn) [I-793], the DC50 was greater than 200 nM under setting [1] and greater than 200 nM under setting [2].
`Cn1c(=O)n(C2CCC(=O)NC2=O)c2cccc(N3CCC(O[C@H]4CC[C@H](n5cc6cc(NC(=O)c7cccc(C(F)(F)F)n7)ccc6n5)CC4)C3)c21` (stereo partly drawn) [I-794]: the DC50 by setting is: under setting [3], greater than 200 nM; under setting [4], greater than 200 nM.
On to `Cn1c(=O)n(C2CCC(=O)NC2=O)c2cccc(N3CC(O[C@H]4CC[C@H](n5cc6cc(NC(=O)c7cccc(C(F)(F)F)n7)ncc6n5)CC4)C3)c21` (stereo partly drawn) [I-795], for which the DC50 is, setting by setting: under setting [3], greater than 200 nM; under setting [4], greater than 200 nM.
As to `Cn1c(=O)n(C2CCC(=O)NC2=O)c2cccc(N3CC(O[C@H]4CC[C@H](n5cc6cc(NC(=O)c7cccc(C(F)(F)F)n7)ccc6n5)CC4)C3)c21` (stereo partly drawn) [I-796], the DC50 by setting is: under setting [3], greater than 200 nM; under setting [4], greater than 200 nM.
